Test results published in ChEMBL document CHEMBL5465560, “Selectivity Literature for EUbOPEN Chemogenomic Library” (2024).

Assays:
[1] = biological target: T1, Serine/threonine-protein kinase PLK4 (Homo sapiens) (UniProt O00444); assay: Selectivity interaction (KinomeScan (DiscoverX)) EUB0000229b PLK4; settings: at 10 µM
T1 sequence (whole entry): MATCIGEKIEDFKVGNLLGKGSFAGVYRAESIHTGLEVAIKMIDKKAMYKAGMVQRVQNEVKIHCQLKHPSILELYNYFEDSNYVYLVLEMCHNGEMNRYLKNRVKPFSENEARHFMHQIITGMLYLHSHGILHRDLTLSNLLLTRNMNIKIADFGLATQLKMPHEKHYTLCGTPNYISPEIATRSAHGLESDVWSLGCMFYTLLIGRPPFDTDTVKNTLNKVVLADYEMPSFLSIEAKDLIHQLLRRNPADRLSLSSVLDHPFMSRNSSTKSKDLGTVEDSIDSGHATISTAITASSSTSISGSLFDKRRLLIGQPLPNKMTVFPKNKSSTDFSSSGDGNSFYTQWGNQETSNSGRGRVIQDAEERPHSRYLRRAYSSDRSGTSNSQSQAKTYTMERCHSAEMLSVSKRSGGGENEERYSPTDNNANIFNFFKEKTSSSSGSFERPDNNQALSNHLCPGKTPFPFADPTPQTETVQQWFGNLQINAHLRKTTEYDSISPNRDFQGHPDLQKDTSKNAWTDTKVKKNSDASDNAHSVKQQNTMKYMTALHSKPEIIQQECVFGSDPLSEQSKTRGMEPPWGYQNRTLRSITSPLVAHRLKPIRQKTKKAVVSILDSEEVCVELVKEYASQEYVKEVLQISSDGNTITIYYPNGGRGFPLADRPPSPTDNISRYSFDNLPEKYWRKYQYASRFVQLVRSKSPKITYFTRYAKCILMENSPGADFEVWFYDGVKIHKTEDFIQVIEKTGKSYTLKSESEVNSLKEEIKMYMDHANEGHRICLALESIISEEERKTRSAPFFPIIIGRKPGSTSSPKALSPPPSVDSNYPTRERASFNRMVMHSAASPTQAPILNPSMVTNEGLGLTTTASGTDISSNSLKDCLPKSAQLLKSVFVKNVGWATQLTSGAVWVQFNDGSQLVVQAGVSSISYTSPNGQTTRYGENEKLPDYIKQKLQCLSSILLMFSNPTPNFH

[2] = biological target: T2, Phosphatidylinositol 5-phosphate 4-kinase type-2 gamma (Homo sapiens) (UniProt Q8TBX8); assay: Selectivity interaction (KinomeScan (DiscoverX)) EUB0001550a PIP4K2C; settings: at 1 µM
T2 sequence (whole entry): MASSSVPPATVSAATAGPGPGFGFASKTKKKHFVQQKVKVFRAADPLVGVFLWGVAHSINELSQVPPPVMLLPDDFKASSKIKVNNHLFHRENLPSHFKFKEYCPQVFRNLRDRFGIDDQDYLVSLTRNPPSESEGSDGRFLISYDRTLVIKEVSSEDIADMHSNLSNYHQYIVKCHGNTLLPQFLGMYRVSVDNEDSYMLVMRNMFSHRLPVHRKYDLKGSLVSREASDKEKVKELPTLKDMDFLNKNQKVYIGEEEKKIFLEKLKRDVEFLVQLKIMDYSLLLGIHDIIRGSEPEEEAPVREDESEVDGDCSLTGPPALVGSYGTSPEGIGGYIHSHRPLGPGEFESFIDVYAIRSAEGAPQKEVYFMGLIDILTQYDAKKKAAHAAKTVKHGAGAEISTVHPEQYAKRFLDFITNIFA

[3] = biological target: Calcium/calmodulin-dependent protein kinase type 1 (Homo sapiens) (UniProt Q14012); assay: Selectivity interaction (KinomeScan (DiscoverX)) EUB0000618a CAMK1; settings: at 10 µM
Chain of Calcium/calmodulin-dependent protein kinase type 1 (Homo sapiens) (Q14012 whole entry, looked up): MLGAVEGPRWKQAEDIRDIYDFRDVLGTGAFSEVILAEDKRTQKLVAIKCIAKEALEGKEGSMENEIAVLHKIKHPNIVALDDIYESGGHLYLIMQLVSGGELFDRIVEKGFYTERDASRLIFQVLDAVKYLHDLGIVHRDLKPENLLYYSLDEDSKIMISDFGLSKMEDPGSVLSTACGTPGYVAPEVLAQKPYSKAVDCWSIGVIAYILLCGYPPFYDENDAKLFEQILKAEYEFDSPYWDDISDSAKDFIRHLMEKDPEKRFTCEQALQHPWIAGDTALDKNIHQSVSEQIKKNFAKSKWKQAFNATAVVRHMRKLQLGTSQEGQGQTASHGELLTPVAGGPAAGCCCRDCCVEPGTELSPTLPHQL

[4] = test system: Epidermal growth factor receptor (Homo sapiens), P00533 [G719C]; assay: (§1) Selectivity interaction (KinomeScan (DiscoverX)) EUB0000655a EGFR; settings: at 10 µM
Chain of Epidermal growth factor receptor (Homo sapiens), P00533 [G719C] (P00533 whole entry G719C): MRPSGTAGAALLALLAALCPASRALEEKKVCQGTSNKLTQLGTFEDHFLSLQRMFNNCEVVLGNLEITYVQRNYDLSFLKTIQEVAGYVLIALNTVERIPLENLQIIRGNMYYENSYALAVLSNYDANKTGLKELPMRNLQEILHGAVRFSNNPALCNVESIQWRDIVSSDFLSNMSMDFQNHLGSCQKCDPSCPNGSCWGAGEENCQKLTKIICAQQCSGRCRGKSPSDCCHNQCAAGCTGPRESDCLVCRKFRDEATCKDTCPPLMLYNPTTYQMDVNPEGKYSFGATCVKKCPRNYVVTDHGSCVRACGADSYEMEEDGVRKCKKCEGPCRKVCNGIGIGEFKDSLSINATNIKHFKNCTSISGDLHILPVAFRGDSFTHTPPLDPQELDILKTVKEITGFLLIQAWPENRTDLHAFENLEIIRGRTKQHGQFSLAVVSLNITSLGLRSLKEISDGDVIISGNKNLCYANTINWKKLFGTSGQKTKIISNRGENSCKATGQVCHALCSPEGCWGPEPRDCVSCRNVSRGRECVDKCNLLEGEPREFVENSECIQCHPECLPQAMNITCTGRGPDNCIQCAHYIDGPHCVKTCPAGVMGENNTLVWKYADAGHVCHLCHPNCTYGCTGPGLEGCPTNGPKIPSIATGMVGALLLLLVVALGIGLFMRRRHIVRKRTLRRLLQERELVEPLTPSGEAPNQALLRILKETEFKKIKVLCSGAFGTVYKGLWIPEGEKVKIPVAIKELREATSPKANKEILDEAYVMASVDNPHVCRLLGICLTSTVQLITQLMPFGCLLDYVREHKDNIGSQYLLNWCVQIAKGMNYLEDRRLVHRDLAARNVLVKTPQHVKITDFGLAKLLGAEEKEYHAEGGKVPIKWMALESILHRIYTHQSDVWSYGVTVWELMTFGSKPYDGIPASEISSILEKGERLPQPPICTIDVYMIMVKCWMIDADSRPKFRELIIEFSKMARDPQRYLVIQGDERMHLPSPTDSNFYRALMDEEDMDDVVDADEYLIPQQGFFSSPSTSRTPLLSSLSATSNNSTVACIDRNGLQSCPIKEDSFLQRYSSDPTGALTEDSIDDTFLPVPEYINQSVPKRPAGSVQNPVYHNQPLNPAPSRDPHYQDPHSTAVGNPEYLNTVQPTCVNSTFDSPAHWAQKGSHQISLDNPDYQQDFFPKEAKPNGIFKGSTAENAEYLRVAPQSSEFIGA

[5] = test system: Epidermal growth factor receptor (Homo sapiens), P00533 [L858R,T790M]; assay: as §1; settings: at 10 µM
Chain of Epidermal growth factor receptor (Homo sapiens), P00533 [L858R,T790M] (P00533 whole entry T790M/L858R, looked up): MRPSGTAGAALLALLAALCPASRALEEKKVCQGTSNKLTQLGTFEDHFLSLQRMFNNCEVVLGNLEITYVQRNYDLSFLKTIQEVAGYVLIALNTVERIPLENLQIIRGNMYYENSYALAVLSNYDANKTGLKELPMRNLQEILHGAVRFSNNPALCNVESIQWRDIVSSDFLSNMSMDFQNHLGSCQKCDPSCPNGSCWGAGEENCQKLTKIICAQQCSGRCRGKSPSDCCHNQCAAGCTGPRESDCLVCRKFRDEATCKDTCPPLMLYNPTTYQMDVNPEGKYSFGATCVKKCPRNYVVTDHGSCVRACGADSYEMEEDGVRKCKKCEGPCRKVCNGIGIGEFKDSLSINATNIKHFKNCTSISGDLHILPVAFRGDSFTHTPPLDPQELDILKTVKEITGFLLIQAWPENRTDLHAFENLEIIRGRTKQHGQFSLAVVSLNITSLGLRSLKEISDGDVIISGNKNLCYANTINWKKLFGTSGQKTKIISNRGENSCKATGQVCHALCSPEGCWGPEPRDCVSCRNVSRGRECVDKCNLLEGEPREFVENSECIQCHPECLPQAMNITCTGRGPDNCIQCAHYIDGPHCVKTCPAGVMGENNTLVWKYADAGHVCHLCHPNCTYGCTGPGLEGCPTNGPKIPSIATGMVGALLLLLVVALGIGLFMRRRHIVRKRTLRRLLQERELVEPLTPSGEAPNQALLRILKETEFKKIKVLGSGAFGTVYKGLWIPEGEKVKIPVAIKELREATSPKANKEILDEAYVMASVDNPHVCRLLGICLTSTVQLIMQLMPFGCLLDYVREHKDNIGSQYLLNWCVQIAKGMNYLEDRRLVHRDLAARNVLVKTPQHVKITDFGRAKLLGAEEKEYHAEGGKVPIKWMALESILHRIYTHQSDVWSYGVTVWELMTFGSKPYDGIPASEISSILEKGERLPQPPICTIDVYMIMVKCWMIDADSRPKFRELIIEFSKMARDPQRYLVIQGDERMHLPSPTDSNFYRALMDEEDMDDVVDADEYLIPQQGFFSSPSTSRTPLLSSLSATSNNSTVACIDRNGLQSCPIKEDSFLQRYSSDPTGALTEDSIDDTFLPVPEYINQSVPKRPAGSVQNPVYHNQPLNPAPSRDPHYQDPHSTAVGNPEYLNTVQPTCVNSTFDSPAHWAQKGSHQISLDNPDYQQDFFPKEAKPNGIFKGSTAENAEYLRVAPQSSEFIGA

[6] = test system: Epidermal growth factor receptor (Homo sapiens), P00533 [T790M]; assay: as §1; settings: at 10 µM
Chain of Epidermal growth factor receptor (Homo sapiens), P00533 [T790M] (P00533 whole entry T790M): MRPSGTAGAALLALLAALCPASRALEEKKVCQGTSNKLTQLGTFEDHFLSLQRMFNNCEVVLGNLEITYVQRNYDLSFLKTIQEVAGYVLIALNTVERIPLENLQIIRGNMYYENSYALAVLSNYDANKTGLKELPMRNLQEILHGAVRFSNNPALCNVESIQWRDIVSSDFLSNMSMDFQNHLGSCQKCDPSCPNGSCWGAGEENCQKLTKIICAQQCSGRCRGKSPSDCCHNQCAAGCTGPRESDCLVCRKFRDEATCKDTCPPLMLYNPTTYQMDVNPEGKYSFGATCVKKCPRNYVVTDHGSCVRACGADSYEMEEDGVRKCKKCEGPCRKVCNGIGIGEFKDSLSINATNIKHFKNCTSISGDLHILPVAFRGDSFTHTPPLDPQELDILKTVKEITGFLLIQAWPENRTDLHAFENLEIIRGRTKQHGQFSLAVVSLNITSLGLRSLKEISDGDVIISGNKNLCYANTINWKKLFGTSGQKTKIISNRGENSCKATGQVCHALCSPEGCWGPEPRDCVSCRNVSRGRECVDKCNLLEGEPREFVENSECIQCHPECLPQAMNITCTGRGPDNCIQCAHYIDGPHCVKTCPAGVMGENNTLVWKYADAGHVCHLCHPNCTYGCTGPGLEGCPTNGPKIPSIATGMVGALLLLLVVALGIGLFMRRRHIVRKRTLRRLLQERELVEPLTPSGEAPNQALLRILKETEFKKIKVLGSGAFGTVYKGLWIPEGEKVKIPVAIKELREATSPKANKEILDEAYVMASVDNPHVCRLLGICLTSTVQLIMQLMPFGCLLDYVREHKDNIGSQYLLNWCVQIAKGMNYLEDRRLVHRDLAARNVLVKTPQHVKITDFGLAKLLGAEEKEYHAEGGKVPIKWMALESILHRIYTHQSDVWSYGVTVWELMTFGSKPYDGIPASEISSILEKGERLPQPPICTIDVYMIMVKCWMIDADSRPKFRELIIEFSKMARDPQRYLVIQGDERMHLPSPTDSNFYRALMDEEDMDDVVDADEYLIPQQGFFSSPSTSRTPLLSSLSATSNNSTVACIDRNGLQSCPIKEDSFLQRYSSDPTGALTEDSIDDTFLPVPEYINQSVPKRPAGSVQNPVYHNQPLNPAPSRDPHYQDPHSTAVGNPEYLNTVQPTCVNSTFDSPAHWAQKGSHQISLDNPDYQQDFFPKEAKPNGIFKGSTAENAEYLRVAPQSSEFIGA

[7] = biological target: Epidermal growth factor receptor (Homo sapiens, UniProt P00533); assay: as §1; settings: at 10 µM
[8] = test system: Epidermal growth factor receptor (Homo sapiens), P00533 [G719S]; assay: as §1; settings: at 10 µM
[9] = biological target: T3, Alpha-1A adrenergic receptor (Homo sapiens) (UniProt P35348); assay: Selectivity interaction (Panel of non-epigenetic targets (kinases, GPCRs, ion channels, and transporters, Eurofins) ) EUB0000271b ADRA1A; settings: at 1 µM
T3 sequence (whole entry): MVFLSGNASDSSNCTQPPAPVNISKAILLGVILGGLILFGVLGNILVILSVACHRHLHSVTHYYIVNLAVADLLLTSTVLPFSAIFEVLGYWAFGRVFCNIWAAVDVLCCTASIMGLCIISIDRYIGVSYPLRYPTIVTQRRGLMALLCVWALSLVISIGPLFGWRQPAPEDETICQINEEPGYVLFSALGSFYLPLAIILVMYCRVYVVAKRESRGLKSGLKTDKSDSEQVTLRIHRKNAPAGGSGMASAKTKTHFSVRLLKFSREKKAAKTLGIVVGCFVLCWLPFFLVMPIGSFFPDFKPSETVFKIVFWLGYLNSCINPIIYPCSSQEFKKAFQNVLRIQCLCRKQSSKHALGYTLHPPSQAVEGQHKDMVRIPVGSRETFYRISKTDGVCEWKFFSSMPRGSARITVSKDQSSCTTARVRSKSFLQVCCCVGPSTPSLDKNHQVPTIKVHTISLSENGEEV

**Q.** `COc1cc(N(C)c2ccnc3ccc(C(F)(F)F)cc23)cc(OC)c1OC` was tested. Which % binding [1] did it give?
**A.** Its % binding is 99%.

**Q.** How did the % of control [2] turn out when `CN(C)CC#Cc1ccc2[nH]c3c(c2c1)-c1nc(N)ncc1CCC3` was run?
**A.** The % of control was 53%.

**Q.** With `O[C@H]1CC[C@H](Nc2ncc3nc(Nc4c(F)cc(F)cc4F)n([C@H]4CCOC4)c3n2)CC1` as the molecule, how does the % of control [3] read?
**A.** The % of control was 100%.

**Q.** For `CN(C)CCOc1ccc(-c2nc(-c3ccncc3)c(-c3ccc4c(c3)CC/C4=N\O)[nH]2)cc1`, which % of control [4] is on record?
**A.** Its % of control is 59%.

**Q.** What about the % of control [5] of the same molecule?
**A.** Its % of control is 93%.

**Q.** What about the % of control [6] of the same molecule?
**A.** The % of control was 34%.

**Q.** What about the % of control [7] of the same molecule?
**A.** The % of control was 95%.

**Q.** And the % of control [8]?
**A.** Its % of control is 70%.

**Q.** `Cc1cc(C)cc([C@@H]2c3cc(C)ccc3NC(=O)CN2C(=O)c2ccc(Br)s2)c1` was tested. Which % of inhibition [9] did it give?
**A.** The % of inhibition was 4%.
